Patent publication US20020052295A1, “Diacyl derivatives of propylene diamine having herbicidal activity” (priority 1999, published 2002)

What was measured:
SORVU = assay: Pre-emergence herbicidal activity on SORVU (shattercane); format: in vivo, Sorghum vulgare; conditions: lowest tested rate giving 80% or greater inhibition, approx. 14 days after planting and treating, greenhouse
In short: (§1)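 In this greenhouse test, compound in acetone/water (50:50) was put on the soil surface directly after seeds were sown and covered. Plants received overhead irrigation and were held at 30/21 °C day/night. About 14 days on, inhibition relative to untreated controls gave GR80.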

BRAPP = assay: Pre-emergence herbicidal activity on BRAPP (broadleaf signalgrass); format: in vivo, Brachiaria platyphylla; conditions: greenhouse
In short: as §1

[1] = system: monocotyledonous and dicotyledonous annual plant species; assay: Greenhouse pre-emergence test, all species of the test taken together; format: in vivo
Text: All such uses, and the biological activity enabling such uses, are embraced by the term “herbicidal” herein. […] Where herbicidal activity was evident but 80% inhibition was not achieved at the highest rate tested (typically 1000 g/ha), an asterisk (*) is shown in the following tables. Herbicidal activity evident in the form of symptoms of phytotoxicity, in the absence of at least 80% inhibition at any rate, is indicated in the tables by “phyto”. A blank cell in the following tables indicates no herbicidal or phytotoxic response at any rate tested.
The pre-emergence tests were conducted by the following procedure. Topsoil was sieved to pass through a 1.27 cm screen. Fertilizer was added to the topsoil and the mixture was then sterilized by heating. The topsoil mixture was placed in a pot and compacted to a depth of 1.0 to 1.25 cm from the top of the pot. Seeds of each of several monocotyledonous and dicotyledonous annual plant species were placed on top of the soil. Additional soil was subsequently placed over the seeds to level-fill the pot. A known amount of each test compound dissolved or suspended in an appropriate organic solvent was diluted with a 50:50 mix of acetone and water and applied to the surface of the soil. After treatment the plants were placed in a greenhouse with a 30/21° C. day/night temperature regime where they received 0.64 cm of overhead irrigation. All subsequent watering consisted of a light overhead mist and/or subirrigation as needed for germination and growth.
Pre-emergence herbicidal activity of the compound of Example 5, a racemic mixture of R- and S-enantiomers of N,N′-(1,2-propanediylbis)-3-(trifluoromethyl) benzamide, was compared with that of the individual R- and S-enantiomers, the compounds of Examples 5a and 5b respectively. The procedure was exactly as described above. Rates tested were 1000, 650, 300, 200, 100, 65, 30 and 10 g/ha.
In a greenhouse pre-emergence test conducted according to the procedure described hereinabove, R—N,N′-(1,2-propanediylbis)-3-(trifluoromethyl)benzamide (the compound of Example 5a) was applied at 200 g/ha and acetochlor was applied at 100 g/ha, both individually and in combination.
In the same greenhouse pre-emergence test, R-2-fluoro-3-trifluoromethyl-N-[1-methyl-2-(3-trifluoromethyl)phenylcarbonylamino]ethylbenzamide (the compound of Example 13) was applied at 100 g/ha and acetochlor was applied at 100 g/ha, both individually and in combination.

PANMI = assay: Pre-emergence herbicidal activity on PANMI (wild proso millet); format: in vivo, Panicum miliaceum; conditions: greenhouse
In short: as §1

SORHA = assay: Pre-emergence herbicidal activity on SORHA (johnsongrass, seedling); format: in vivo, Sorghum halepense; conditions: greenhouse
In short: as §1

CONAR = assay: Pre-emergence herbicidal activity on CONAR (field bindweed); format: in vivo, Convolvulus arvensis; conditions: greenhouse
In short: as §1

DATST = assay: Pre-emergence herbicidal activity on DATST (jimsonweed); format: in vivo, Datura stramonium; conditions: greenhouse
In short: as §1

PANDI = assay: Pre-emergence herbicidal activity on PANDI (fall panicum); format: in vivo, Panicum dichotomiflorum; conditions: greenhouse
In short: as §1

POROL = assay: Pre-emergence herbicidal activity on POROL (common purslane); format: in vivo, Portulaca oleracea; conditions: greenhouse
In short: as §1

CHEAL = assay: Pre-emergence herbicidal activity on CHEAL (common lambsquarters); format: in vivo, Chenopodium album; conditions: greenhouse
In short: as §1

monocotyledonous species = assay: Greenhouse post-emergence test in combination with glyphosate, monocotyledonous species; format: in vivo
Text: (§2) A pre-prepared topsoil mixture (described above) was placed in a pot and compacted to a depth of 1.0 to 1.25 cm from the top of the pot. Seeds of each of several monocotyledonous and dicotyledonous annual plant species were placed on top of the soil The seeds were covered with a mixture of 50% topsoil and 50% Rediearth™ in sufficient quantity to level-fill the pots. The pots were then placed on a greenhouse bench and subirrigated as needed until plants growing from the seeds had emerged and reached a suitable growth stage for post-emergence treatment, typically 9 to 14 days after planting.
(§3) A known amount of each test compound dissolved or suspended in an appropriate organic solvent was diluted with a 50:50 mix of acetone and water and applied to the plants by spraying with a standard spray nozzle in a spray volume of 3,100 l/ha at a spray pressure of […] (30 psig). Control plants were not sprayed.
(§4) After treatment the plants were placed in a greenhouse with a 30/21° C. day/night temperature regime and were subsequently watered as needed for growth. Approximately 14 days after treatment, the plants were observed and herbicidal efficacy recorded as percent inhibition by comparison with control plants.
(§5) In a greenhouse post-emergence test conducted according to the procedure described hereinabove, R-2-fluoro-3-trifluoromethyl-N-[1-methyl-2-(3-trifluoromethyl)phenylcarbonylamino]ethylbenzamide (the compound of Example 13) was applied at 0, 64, 125 and 250 g/ha in combination with glyphosate isopropylammonium salt at 1000 g a.e./ha. The glyphosate herbicide alone gave 72% control of dicotyledonous species and 84% control of monocotyledonous species. […] At 250 g/ha, addition of the compound of Example 13 gave 93% control of dicotyledonous species, but reduced control of monocotyledonous species to 73%.

SOLNI = assay: Pre-emergence herbicidal activity on SOLNI (black nightshade); format: in vivo, Solanum nigrum; conditions: greenhouse
In short: as §1

dicotyledonous species = assay: Greenhouse post-emergence test in combination with glyphosate, dicotyledonous species; format: in vivo
Text: as §2, §3, §4, §5

ABUTH = assay: Pre-emergence herbicidal activity on ABUTH (velvetleaf); format: in vivo, Abutilon theophrasti; conditions: greenhouse
In short: as §1

CIRAR = assay: Pre-emergence herbicidal activity on CIRAR (canada thistle, seedling); format: in vivo, Cirsium arvense; conditions: greenhouse
In short: as §1

DIGSA = assay: Pre-emergence herbicidal activity on DIGSA (large crabgrass); format: in vivo, Digitaria sanguinalis; conditions: greenhouse
In short: as §1

ECHCG = assay: Pre-emergence herbicidal activity on ECHCG (barnyardgrass); format: in vivo, Echinochloa crus-galli; conditions: lowest tested rate giving 80% or greater inhibition, approx. 14 days after planting and treating, greenhouse
In short: as §1

AMARE = assay: Pre-emergence herbicidal activity on AMARE (redroot pigweed); format: in vivo, Amaranthus retroflexus; conditions: greenhouse
In short: as §1

SETFA = assay: Pre-emergence herbicidal activity on SETFA (giant foxtail); format: in vivo, Setaria faberi; conditions: greenhouse
In short: as §1

[2] = lowest tested rate giving 80% or greater inhibition, approx. 14 days after planting and treating
[3] = Example 13 at 64 g/ha in combination with glyphosate isopropylammonium salt 1000 g a.e./ha
[4] = Example 13 at 125 g/ha in combination with glyphosate isopropylammonium salt 1000 g a.e./ha
[5] = Example 13 at 250 g/ha in combination with glyphosate isopropylammonium salt 1000 g a.e./ha

C[C@H](CNC(=O)c1cccc(C(F)(F)F)c1)NC(=O)c1cccc(C(F)(F)F)c1F [Example 13, R-2-fluoro-3-trifluoromethyl-N-[1-methyl-2-(3-trifluoromethyl)phenylcarbonylamino]ethylbenzamide]
Pre-emergence activity (GR80) on SORVU (SORVU): 1000 g/ha
Percent control by pre-emergence application, BRAPP (BRAPP; applied alone at 100 g/ha): 4%
Pre-emergence activity (GR80) on BRAPP (BRAPP; [2]): 500 g/ha
herbicidal activity of the combination compared with expectation ([1]; Example 13 100 g/ha + acetochlor 100 g/ha, at least on ABUTH, DATST, SOLNI and PANMI): greater than expected herbicidal activity
number of the 14 species showing >85% control ([1]; Example 13 100 g/ha in combination with acetochlor 100 g/ha): 10
number of the 14 species showing >85% control ([1]; Example 13 alone at 100 g/ha): 3
Percent control by pre-emergence application, PANMI (PANMI; applied alone at 100 g/ha): 5%
Pre-emergence activity (GR80) on PANMI (PANMI; [2]): 500 g/ha
Percent control by pre-emergence application, SORHA (SORHA; applied alone at 100 g/ha): 7%
Pre-emergence activity (GR80) on SORHA (SORHA; [2]): 500 g/ha
Percent control by pre-emergence application, CONAR (CONAR; applied alone at 100 g/ha): 38%
Pre-emergence activity (GR80) on CONAR (CONAR; [2]): 750 g/ha
Percent control by pre-emergence application, DATST (DATST; applied alone at 100 g/ha): 12%
Pre-emergence activity (GR80) on DATST (DATST; [2]): 125 g/ha
Percent control by pre-emergence application, PANDI (PANDI; applied alone at 100 g/ha): 40%
Pre-emergence activity (GR80) on PANDI (PANDI; [2]): 250 g/ha
Percent control by pre-emergence application, POROL (POROL; applied alone at 100 g/ha): 100%
Pre-emergence activity (GR80) on PORAL (POROL; [2]): 64 g/ha
Percent control by pre-emergence application, CHEAL (CHEAL; applied alone at 100 g/ha): 95%
Pre-emergence activity (GR80) on CHEAL (CHEAL; [2]): 64 g/ha
control of monocotyledonous species (monocotyledonous species; [3]): 89%
control of monocotyledonous species (monocotyledonous species; [4]): 89%
control of monocotyledonous species (monocotyledonous species; [5]): 73%
Percent control by pre-emergence application, SOLNI (SOLNI; applied alone at 100 g/ha): 45%
Pre-emergence activity (GR80) on SOLNI (SOLNI; [2]): 125 g/ha
control of dicotyledonous species (dicotyledonous species; [3]): 85%
control of dicotyledonous species (dicotyledonous species; [4]): 95%
control of dicotyledonous species (dicotyledonous species; [5]): 93%
Percent control by pre-emergence application, ABUTH (ABUTH; applied alone at 100 g/ha): 2%
Pre-emergence activity (GR80) on ABUTH (ABUTH; [2]): 250 g/ha
Percent control by pre-emergence application, CIRAR (CIRAR; applied alone at 100 g/ha): 25%
Pre-emergence activity (GR80) on CIRAR (CIRAR; [2]): 64 g/ha
Percent control by pre-emergence application, DIGSA (DIGSA; applied alone at 100 g/ha): 43%
Pre-emergence activity (GR80) on DIGSA (DIGSA; [2]): 125 g/ha
Pre-emergence activity (GR80) on ECHCG (ECHCG): 500 g/ha
Percent control by pre-emergence application, AMARE (AMARE; applied alone at 100 g/ha): 86%
Pre-emergence activity (GR80) on AMARE (AMARE; [2]): 64 g/ha
Percent control by pre-emergence application, SETFA (SETFA; applied alone at 100 g/ha): 25%
Pre-emergence activity (GR80) on SETFA (SETFA; [2]): 125 g/ha
